Measured values: patent US20240060133A1, “METHODS FOR IDENTIFICATION AND TREATMENT OF BLEEDING IN ANIMALS” (WASHINGTON STATE UNIVERSITY, priority 2021, published 2024)

Tests used:
[1] = test system: delayed postoperative bleeding in greyhounds; details: 46 greyhounds, limb amputation for osteosarcoma, after introduction of the prophylactic treatment; cited from earlier work
[2] = test system: delayed postoperative bleeding in Scottish deerhounds; experiment: Scottish deerhound cases with delayed postoperative bleeding (health survey and veterinary records); assay type: in vivo, Scottish deerhound dogs; details: for hematocrit and platelet counts: SDH-2, 750 mg intravenous infusion; for hematocrit: SDH-4, continuous intravenous infusion plus transfusions of whole blood and plasma
Excerpt: For the instant example, Scottish deerhounds with delayed postoperative bleeding and matched controls were identified through a survey distributed to members of the Scottish Deerhound Club of America. A subsection of this survey requested information regarding the surgical history of the dogs, occurrence of postoperative bleeding complications, and perioperative administration of antifibrinolytic drugs (EACA or tranexamic acid). A diagnosis of delayed postoperative bleeding, defined as unexpected bleeding from a surgical wound starting 1 to 4 days after the procedure, was based on review of the owner's description of the event, the veterinary medical record (if available), and therapeutic response to administration of antifibrinolytic drugs (if used). Dogs were excluded if the bleeding event occurred on the same day of surgery, or after more than 4 days following surgery.
The instant example utilizes the methods described in Example 1 to identify delayed postoperative bleeding cases in canines and controls. Completed health surveys from the owners of 260 Scottish deerhounds were reviewed to identify delayed postoperative bleeding cases and controls. Of the original 260 dogs evaluated, 105 dogs (40%) were identified that had undergone at least one surgical procedure, while 21 dogs (8%) had received two or more surgeries. Nine of 105 dogs (9%) with a surgical history were reported to have experienced postoperative bleeding and/or excessive bruising at least once after a surgical procedure. Of these, bleeding into the abdomen was first diagnosed within 8 hours after surgery in two dogs, while bleeding and/or bruising was not evident until at least the morning after surgery in the remaining 7 dogs. These latter 7 dogs were considered delayed postoperative bleeding cases and all had DNA samples available for case-control analysis. Of the 96 dogs that had undergone surgery without evidence for postoperative bleeding, 25 dogs (26%) had received prophylactic treatment with EACA, while 71 dogs (74%) had not received any antifibrinolytic drug. These latter 71 dogs were considered delayed postoperative bleeding controls. Of the 71 control dogs, 55 dogs had DNA samples available for case-control genetic analysis.
Case information for the seven dogs (SDH-1 to SDH-7) that met the inclusion/exclusion criteria for delayed postoperative bleeding are shown in Table 1.

[3] = target: T1, canine plasmin (Canis lupus familiaris, UniProt P80009); experiment: Plasmin inhibition assay (microplate-based colorimetric kinetic assay); assay type: biochemical; details: substrate D-VLK-pNA, 37° C., preliminary studies, FIG. 1, read-out: IC50, concentration-dependent inhibition of plasmin activity
T1 construct: purchased Molecular Innovation, Novi, MI DPLM
Method: A microplate-based colorimetric kinetic assay was developed and validated to measure the potency of inhibition of canine plasmin by plasma based on a previously published method. Briefly, 2 μL of canine plasma diluted to 50 μL in phosphate-buffered saline (PBS) was added on ice to 96-well UV clear nonbinding plates (Cat. #655901, Greiner Bio-One, Monroe, NC). Then, 50 μL of canine plasmin (Cat. #DPLM, Molecular Innovation, Novi, MI) at 100 nM concentration in 50 μL PBS was added, mixed by pipetting, and incubated at 37° C. for 5 min. To this, 100 μL of prewarmed plasmin substrate (D-VLK-pNA, Molecular Innovation, Novi, MI) at 200 μM concentration in PBS was added, mixed, and immediately placed in a colorimetric plate reader (SpectraMax i3, Molecular Devices, San Jose, CA) set at 37° C. Absorbance at 405 nm was then monitored in each well over the next 5 minutes. Plasmin hydrolysis activity for each well was calculated from the fitted linear slope of the absorbance versus time curve over 5 minutes.
Preliminary studies confirmed concentration-dependent inhibition of plasmin activity by the antifibrinolytic aprotinin (Cat. #A1153, Sigma Aldrich, St Louis, MO) with an IC50 of approximately 500 nM (see FIG. 1). Plasma collected in sodium citrate and pooled from 2 male and 2 female beagle dogs was obtained from a commercial vendor (Biochemed Services, Winchester, VA). […]

[4] = SDH-2, Day 1-evening (after aminocaproic acid), 750 mg intravenous infusion
[5] = prophylactic antifibrinolytic given, individual dogs SDH-3 and SDH-6

T1 sequence (P80009 104-333 limits assumed): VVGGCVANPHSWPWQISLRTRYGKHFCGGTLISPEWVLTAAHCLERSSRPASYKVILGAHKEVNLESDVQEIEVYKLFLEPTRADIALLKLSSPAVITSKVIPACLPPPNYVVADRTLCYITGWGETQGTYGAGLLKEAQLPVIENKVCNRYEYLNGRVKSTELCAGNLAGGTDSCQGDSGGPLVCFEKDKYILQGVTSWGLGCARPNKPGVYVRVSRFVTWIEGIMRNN
T1 sequence (P80009 with tags, fused parts or gaps partner limits assumed): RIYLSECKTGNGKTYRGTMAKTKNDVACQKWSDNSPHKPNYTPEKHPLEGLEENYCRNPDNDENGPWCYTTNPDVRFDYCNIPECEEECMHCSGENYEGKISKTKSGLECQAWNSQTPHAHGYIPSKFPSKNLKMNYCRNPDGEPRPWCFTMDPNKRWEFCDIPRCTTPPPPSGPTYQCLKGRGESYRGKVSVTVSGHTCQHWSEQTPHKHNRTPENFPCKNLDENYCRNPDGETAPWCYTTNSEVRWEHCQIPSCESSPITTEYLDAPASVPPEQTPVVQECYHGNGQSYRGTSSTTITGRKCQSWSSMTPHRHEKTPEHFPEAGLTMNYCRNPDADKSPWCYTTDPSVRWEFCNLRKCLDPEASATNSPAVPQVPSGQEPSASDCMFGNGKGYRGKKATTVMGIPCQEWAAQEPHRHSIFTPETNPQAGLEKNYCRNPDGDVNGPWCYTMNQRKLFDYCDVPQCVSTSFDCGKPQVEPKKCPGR

NCCCCCC(=O)O [EACA, 6-aminohexanoic acid]
incidence of bleeding [1]: 16%
hematocrit and platelet counts ([2]; by Day 5): within their normal range
hematocrit and platelet counts ([2]; next morning (Day 2)): significantly increased
Hematocrit (%) [2, 4]: 34.4%
Platelet count (×10^9/L) [2, 4]: 31 ×10^9/L
Hematocrit (%) ([2]; SDH-2, Day 2): 41.7%
Platelet count (×10^9/L) ([2]; SDH-2, Day 2): 125 ×10^9/L
Hematocrit (%) ([2]; SDH-2, Day 5): 51.9%
Platelet count (×10^9/L) ([2]; SDH-2, Day 5): 371 ×10^9/L
Hematocrit (%) ([2]; SDH-2, Week 5): 50.4%
Platelet count (×10^9/L) ([2]; SDH-2, Week 5): 276 ×10^9/L
bleeding after therapeutic treatment ([2]; SDH-3, castration, 500 mg orally every 8 hours for 5 days, with fluids, antibiotics, vitamin K): No further bleeding was observed
bruising or delayed postoperative bleeding after prophylactic treatment ([2]; SDH-3, splenectomy, 500 mg intravenous infusion during procedure then 500 mg oral every 8 hours for 5 days): No excessive bruising or delayed postoperative bleeding were observed
hematocrit ([2]; after one month): 60%
hematocrit ([2]; at discharge after 5 days (15% before)): 36%
bleeding after therapeutic treatment ([2]; SDH-6, sebaceous cyst removal, orally administered after bleeding): the bleeding resolved
postoperative bleeding or bruising after prophylactic treatment ([2]; SDH-6, skin abscess surgery, pre-operative oral dose): No postoperative bleeding or bruising was observed
bleeding after drug administration ([2]; dogs with delayed postoperative bleeding, EACA oral or injectable): stopped within hours
Delayed bleeding? [2, 5]: No
Outcome [2, 5]: No complications
Outcome ([2]; therapeutic antifibrinolytic given after delayed bleeding, individual dogs SDH-2 to SDH-6): Responded to antifibrinolytic

aprotinin
IC50 [3]: ~500 nM
